Data as given in patent US20150352076A1, “MOLECULARLY TARGETED COMBINATION DRUG FOR TUMOR TREATMENT AND PREVENTION” (ONCOLYS BIOPHARMA INC., priority 2013, published 2015).
Residues, ends and D or L forms follow the SMILES beside them. *: point of attachment. Cbz = O=C(OCc1ccccc1)*; CH2F = FC*

Columns and labels:
Type in all cases: cell-based, human
HEC-1-A cells [1] = test: Cell viability testing (Cell Counting Kit-8), cell growth inhibition
Protocol: (§1) HEC-1-A cells derived from the human type 2 endometrial carcinoma cell line were cultured under conditions of 37° C. and 5% CO2 in RPMI medium to which 10% FBS had been added. Ishikawa human endometrial carcinoma cells were cultured under conditions of 37° C. and 5% CO2 in DMEM medium to which 10% FBS had been added. Human renal cell carcinoma cell line 786-O cells were cultured under conditions of 37° C. and 5% CO2 in RPMI 1640 medium to which 10% FBS, 2 mM glutamine, 100 U/mL penicillin, and 100 μg/mL streptomycin had been added. Human renal cell carcinoma cell line ACHN cells were cultured under conditions of 37° C. and 5% CO2 in DMEM medium to which 10% FBS, 4 mM glutamine, 100 U/mL penicillin, and 100 μg/mL streptomycin had been added. Human lymphoma cell line SU-DHL-6 cells were cultured under conditions of 37° C. and 5% CO2 in RPMI 1640 medium to which 10% FBS, 2 mM glutamine, 100 U/mL penicillin, and 100 μg/mL streptomycin had been added. Human breast cancer cell line MDA-MB-231 cells were cultured under conditions of 37° C. and 5% CO2 in RPMI 1640 medium to which 10% FBS, 2 mM glutamine, 100 U/mL penicillin, and 100 μg/mL streptomycin had been added.
(§2) Cell viability was determined by carrying out measurements at a wavelength of 450 nm with a Viento multi-well spectrophotometer (DS Pharma Biomedical, Japan) using a Cell Counting Kit-8 (Dojindo Laboratories, Japan).

ACHN cells = test: Cell viability testing, cell growth inhibition; conditions: used alone
Protocol: as §1, §2

Ishikawa cells = test: Cell viability testing, cell growth inhibition; conditions: used alone
Protocol: as §1, §2

786-O cells [2] = test: Cell viability testing, cell growth inhibition; conditions: used alone
Protocol: as §1, §2

acetylated histone H4 = test: Western blot analysis of acetylated histone H4 in HEC-1-A cells
Protocol: (§3) Cells were lysed with lysis solution (50 mM Tris-HCl, 1% SDS, 2 μg/mL leupeptin, 2 μg/mL aprotinin, 0.1% 2-mercaptoethanol, and 1 mM phenylmethyl sulfonyl fluoride). Protein extract was loaded onto a polyacrylamide gel, subjected to electrophoresis, and transferred to a nitrocellulose membrane. Blots were blocked in blocking solution (5% skim milk/TBST) for 1 hour at room temperature, and incubated with appropriate primary antibody for 1 hour at room temperature. Signal was detected with an ECL™ Western Blot Analysis System (GE Healthcare, Piscataway, N.J., USA) or a Chemi-Lumi One chemiluminescent detection kit (Nacalai Tesque, Inc., Japan). […]

HEC-1-A cells [3] = test: Analysis of cell cycle and apoptosis (sub-G1 fraction, flow cytometry) with combination index; conditions: for effect on tumor cell cycle progression: used alone, OBP-801 4 nM, LY294002 12.5 μM, 24 hours to 72 hours
Protocol: (§4) Cells were treated for 24 hours, 48 hours, or 72 hours at respective concentrations with or without addition of OBP-801 and/or with addition of LY294002, BKM120, GDC-0941, BEZ235, BYL719, or CH5132799, following which cells were harvested. The cells were permeabilized with 0.1% Triton-X100, following which the nuclei were stained with propidium iodide (PI). DNA content was measured using a FACSCalibur™ flow cytometer (Becton-Dickinson, Franklin Lakes, N.J., USA), and was analyzed with ModFit LT™ (Verity Software House, Topsham, Me., USA) and the Cell Quest™ software package (Becton-Dickinson).
Combination index (CI) was calculated using CalcuSyn software (Biosoft, UK) based on the method of Chou and Talalay. When CI<1, it is determined that the effect is synergistic; i.e., greater than the expected additive effect. When CI=1, it is determined that the effect is additive; when CI>1, it is determined that the effect is antagonistic.

HEC-1-A cells [4] = test: Colony formation assay
Protocol: Cells were seeded at a density of 200 cells per well in 6-well plates. After culturing these for 24 hours, treatment was carried out for 48 hours at respective concentrations with or without addition of OBP-801 and/or with addition of LY294002. These were then cultured in growth medium for 10 days, and the number of viable colonies was counted.

786-O cells [5] = test: Analysis of apoptosis (sub-G1 fraction, flow cytometry); conditions: for induction of apoptosis (sub-G1), treatment alone: 48 hours and 72 hours; for effect of combined use with OBP-801 (summary statement): PI3K inhibitor used in combination with OBP-801, all five tested in 786-O cells
Protocol: as §4

[6] = system: caspase-3, caspase-8 and caspase-9; test: Western blot analysis of caspase-3, caspase-8 and caspase-9 cleavage in 786-O cells
Protocol: as §3

phosphorylated Akt = test: Western blot analysis of phosphorylated Akt in HEC-1-A cells
Protocol: as §3

survivin and XIAP = test: Western blot analysis of survivin and XIAP in 786-O cells; conditions: OBP-801 and LY294002 plus NAC
Protocol: as §3

caspases, Bim = test: Western blot analysis of caspase cleavage and Bim in HEC-1-A cells; conditions: OBP-801 and LY294002 plus NAC
Protocol: as §3

HEC-1-A cells [7] = test: Measurement of intracellular reactive oxygen species (CM-H2DCFDA); conditions: OBP-801 and LY294002 plus NAC
Protocol: (§5) Cells were pretreated for 48 h with or without addition of OBP-801 and/or with addition of LY294002, and were thereafter treated with 10 μM 5-(and-6)-chloromethyl-2′,7′-dichlorodihydrofluorescein diacetate, acetyl ester (CM-H2DCFDA) (Invitrogen, Carlsbad, Calif., USA). After 30 minutes of incubation with 10 μM CM-H2DCFDA, cells were collected by trypsinization, were washed with PBS, and were analyzed by flow cytometry using FACSCalibur™ and CellQuest™ software (Becton-Dickinson).

786-O cells [8] = test: as above; conditions: OBP-801 and LY294002 plus NAC
Protocol: as §5

Compound: spiruchostatin A [OBP-801]
- concentrations causing inhibition of cell growth (HEC-1-A cells [1]; OBP-801 alone): ≥ 0.0031 µM
- growth of ACHN cells (ACHN cells): suppressed growth of 786-O cells or ACHN cells in concentration-dependent fashion
- growth of Ishikawa cells (Ishikawa cells): suppressed growth of Ishikawa cells in concentration-dependent fashion
- growth of 786-O cells (786-O cells [2]): suppressed growth of 786-O cells or ACHN cells in concentration-dependent fashion
- concentrations causing increase of acetylated histone H4 (acetylated histone H4): ≥ 1.6 nM
- effect on tumor cell cycle progression (HEC-1-A cells [3]): G2/M-phase arrest
- number of colonies formed (HEC-1-A cells [4]; OBP-801 alone at 4 nM, 48 hours treatment, 10 days culture): 60%
- induction of apoptosis (sub-G1), treatment alone (786-O cells [5]; 786-O cells): only slight induction of apoptosis
- cleavage of caspase-3, caspase-8 and caspase-9 [6]: did not induce cleavage of the foregoing caspases

Compound: Nc1cc(C(F)(F)F)c(-c2cc(N3CCOCC3)nc(N3CCOCC3)n2)cn1 [BKM120]
- effect of combined use with OBP-801 (summary statement) (786-O cells [5]): synergistic tumor therapeutic/prophylactic effect

Compound: Cn1c(=O)n(-c2ccc(C(C)(C)C#N)cc2)c2c3cc(-c4cnc5ccccc5c4)ccc3ncc21 [BEZ235]
- effect of combined use with OBP-801 (summary statement) (786-O cells [5]): synergistic tumor therapeutic/prophylactic effect

Compound: O=c1cc(N2CCOCC2)oc2c(-c3ccccc3)cccc12 [LY294002, 2-(4-morpholinyl)-8-phenyl-4H-1-benzopyran-4-one]
- concentrations causing decrease in phosphorylated Akt (phosphorylated Akt): ≥ 6.3 µM
- concentrations causing inhibition of cell growth (HEC-1-A cells [1]; LY294002 alone): ≥ 6.3 µM
- growth of ACHN cells (ACHN cells): suppressed growth of 786-O cells or ACHN cells in concentration-dependent fashion
- growth of Ishikawa cells (Ishikawa cells): suppressed growth of Ishikawa cells in concentration-dependent fashion
- growth of 786-O cells (786-O cells [2]): suppressed growth of 786-O cells or ACHN cells in concentration-dependent fashion
- effect on tumor cell cycle progression (HEC-1-A cells [3]): G1-phase arrest
- number of colonies formed (HEC-1-A cells [4]; LY294002 alone, even at a concentration as high as 12.5 μM): no reduction in the number of colonies formed was observed
- induction of apoptosis (sub-G1), treatment alone (786-O cells [5]; 786-O cells): only slight induction of apoptosis
- cleavage of caspase-3, caspase-8 and caspase-9 [6]: did not induce cleavage of the foregoing caspases

Compound: CS(=O)(=O)N1CCN(Cc2cc3nc(-c4cccc5[nH]ncc45)nc(N4CCOCC4)c3s2)CC1 [GDC-0941]
- effect of combined use with OBP-801 (summary statement) (786-O cells [5]): synergistic tumor therapeutic/prophylactic effect

Compound: CC(=O)N[C@@H](CS)C(=O)O [NAC, N-acetyl-L-cysteine]
- effect on downregulation of survivin and XIAP by combined treatment (survivin and XIAP): restored
- effect on caspase activation and Bim induction due to combined treatment (caspases, Bim): inhibited the caspase activation and Bim induction
- effect on increase of intracellular reactive oxygen species caused by combined treatment (HEC-1-A cells [7]): blocked
- effect on induction of intracellular reactive oxygen species due to combined treatment (786-O cells [8]): blocked the induction of intracellular reactive oxygen species
- effect on induction of apoptosis resulting from combined treatment (HEC-1-A cells [3]; HEC-1-A cells, OBP-801 and LY294002 plus NAC): almost completely suppressed
- effect on induction of apoptosis due to combined treatment (786-O cells [5]; 786-O cells, OBP-801 and LY294002 plus NAC): blocked the induction of apoptosis

Compound: COC(=O)C[C@H](NC(=O)[C@H](C)NC(=O)[C@@H](NC(=O)OCc1ccccc1)C(C)C)C(=O)CF [zVAD-fmk] (Cbz-Val-Ala-Asp(OMe)-CH2F)
- effect on apoptosis induced by combined use of OBP-801 and PI3K inhibitor (HEC-1-A cells [3]; HEC-1-A cells, pan-caspase inhibitor added): almost completely suppressed
- effect on apoptosis induced by combined treatment with OBP-801 and LY294002 (786-O cells [5]; 786-O cells, pan-caspase inhibitor added): effectively suppressed the apoptosis

Compound: CS(=O)(=O)N1CCc2c(-c3cnc(N)nc3)nc(N3CCOCC3)nc21 [CH5132799]
- effect of combined use with OBP-801 (summary statement) (786-O cells [5]): synergistic tumor therapeutic/prophylactic effect

Compound: Cc1nc(NC(=O)N2CCC[C@H]2C(N)=O)sc1-c1ccnc(C(C)(C)C(F)(F)F)c1 [BYL719]
- effect of combined use with OBP-801 (summary statement) (786-O cells [5]): synergistic tumor therapeutic/prophylactic effect
